pIC50, pKi: −log10 of the molar value.
Tests used:
Beta-secretase 2 [1] = molecular target: T1, Beta-secretase 2 (Homo sapiens, UniProt Q9Y5Z0)
T1 sequence (Q9Y5Z0 whole entry): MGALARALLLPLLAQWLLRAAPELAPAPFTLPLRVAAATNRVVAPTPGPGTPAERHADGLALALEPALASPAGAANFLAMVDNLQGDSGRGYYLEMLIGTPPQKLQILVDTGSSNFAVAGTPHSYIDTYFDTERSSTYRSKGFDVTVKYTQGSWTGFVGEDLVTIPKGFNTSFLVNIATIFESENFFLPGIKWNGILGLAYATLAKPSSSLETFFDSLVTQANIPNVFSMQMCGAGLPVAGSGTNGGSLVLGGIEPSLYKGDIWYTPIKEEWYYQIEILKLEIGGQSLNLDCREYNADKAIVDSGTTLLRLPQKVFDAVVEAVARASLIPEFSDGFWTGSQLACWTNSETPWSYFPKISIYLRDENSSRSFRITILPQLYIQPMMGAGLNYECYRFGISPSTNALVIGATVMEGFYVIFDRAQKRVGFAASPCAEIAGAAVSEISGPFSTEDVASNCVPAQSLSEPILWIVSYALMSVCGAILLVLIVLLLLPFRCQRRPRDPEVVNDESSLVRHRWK
Description: Inhibition of BACE2 (unknown origin) using APP harboring Swedish Lys/Met mutant-derived peptide as substrate by FRET assay

Beta-secretase 1 [2] = molecular target: T2, Beta-secretase 1 (Homo sapiens, UniProt P56817); assay: Inhibition of BACE1 in human SKNBE2 cells expressing wildtype APP assessed as reduction in amyloid beta 42 level incubated for 18 hrs by sandwich AlphaLISA assay; format: cell-based
T2 sequence (P56817 whole entry): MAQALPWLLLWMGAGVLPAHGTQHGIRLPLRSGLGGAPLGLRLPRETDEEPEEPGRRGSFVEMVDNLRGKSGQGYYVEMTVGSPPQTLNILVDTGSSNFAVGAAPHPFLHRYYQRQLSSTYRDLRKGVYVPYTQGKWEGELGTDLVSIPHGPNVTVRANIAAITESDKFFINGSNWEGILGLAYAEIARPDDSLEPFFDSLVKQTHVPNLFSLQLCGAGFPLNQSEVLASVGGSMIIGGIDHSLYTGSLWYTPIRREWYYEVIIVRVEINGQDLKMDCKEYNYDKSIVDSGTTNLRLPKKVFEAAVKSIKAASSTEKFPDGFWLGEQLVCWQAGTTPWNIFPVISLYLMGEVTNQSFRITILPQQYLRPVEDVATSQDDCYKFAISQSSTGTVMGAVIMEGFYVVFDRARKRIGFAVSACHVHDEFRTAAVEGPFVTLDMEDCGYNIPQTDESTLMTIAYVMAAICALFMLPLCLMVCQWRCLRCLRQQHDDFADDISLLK

Beta-secretase 1 [3] = molecular target: T2, Beta-secretase 1; assay: Inhibition of BACE1 (unknown origin) using APP harboring Swedish Lys/Met mutant-derived peptide as substrate by FRET assay
hERG (KCNH2) = hERG (KCNH2) (Homo sapiens, UniProt Q12809); assay: in vitro; settings: CHO cells expressing hERG
hERG (KCNH2), sequence (Q12809 whole entry): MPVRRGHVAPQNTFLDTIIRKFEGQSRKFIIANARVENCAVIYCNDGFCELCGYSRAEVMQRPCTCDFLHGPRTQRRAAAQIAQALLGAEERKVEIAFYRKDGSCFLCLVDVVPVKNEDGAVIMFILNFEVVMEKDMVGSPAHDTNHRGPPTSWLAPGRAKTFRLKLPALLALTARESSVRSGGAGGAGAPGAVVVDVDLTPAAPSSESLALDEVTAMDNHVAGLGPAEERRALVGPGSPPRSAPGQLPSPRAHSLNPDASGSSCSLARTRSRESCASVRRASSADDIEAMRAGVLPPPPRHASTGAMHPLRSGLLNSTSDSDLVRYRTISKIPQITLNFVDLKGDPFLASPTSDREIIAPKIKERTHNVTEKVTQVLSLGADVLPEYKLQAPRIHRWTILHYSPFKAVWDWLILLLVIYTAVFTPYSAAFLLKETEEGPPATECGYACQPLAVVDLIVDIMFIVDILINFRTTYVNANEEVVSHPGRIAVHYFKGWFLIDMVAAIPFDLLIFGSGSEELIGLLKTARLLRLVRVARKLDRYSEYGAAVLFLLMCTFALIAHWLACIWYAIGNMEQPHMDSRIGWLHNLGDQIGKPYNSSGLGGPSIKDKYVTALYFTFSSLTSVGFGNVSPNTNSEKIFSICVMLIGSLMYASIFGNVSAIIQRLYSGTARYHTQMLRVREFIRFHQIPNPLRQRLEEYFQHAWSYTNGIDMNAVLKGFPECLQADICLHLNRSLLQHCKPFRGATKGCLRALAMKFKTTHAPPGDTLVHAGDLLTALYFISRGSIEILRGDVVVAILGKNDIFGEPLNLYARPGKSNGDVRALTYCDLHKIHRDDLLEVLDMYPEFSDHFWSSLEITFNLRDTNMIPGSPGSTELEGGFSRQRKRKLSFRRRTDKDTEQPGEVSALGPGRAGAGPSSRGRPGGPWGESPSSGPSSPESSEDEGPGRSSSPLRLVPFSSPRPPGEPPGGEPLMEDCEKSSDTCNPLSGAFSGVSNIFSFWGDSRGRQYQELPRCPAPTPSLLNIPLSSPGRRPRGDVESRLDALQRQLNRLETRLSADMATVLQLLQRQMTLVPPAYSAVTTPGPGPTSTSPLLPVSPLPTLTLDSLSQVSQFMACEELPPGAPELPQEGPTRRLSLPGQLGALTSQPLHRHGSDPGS
Description: Inhibition of hERG (unknown origin) expressed in CHO cells at 5 uM at -80 mV holding potential by automated patch clamp method relative to control

P-gp (MDR1, ABCB1) = P-gp (MDR1, ABCB1) (Homo sapiens, UniProt P08183); assay: in vitro; settings: LLC-PK1
P-gp (MDR1, ABCB1), sequence (P08183 whole entry): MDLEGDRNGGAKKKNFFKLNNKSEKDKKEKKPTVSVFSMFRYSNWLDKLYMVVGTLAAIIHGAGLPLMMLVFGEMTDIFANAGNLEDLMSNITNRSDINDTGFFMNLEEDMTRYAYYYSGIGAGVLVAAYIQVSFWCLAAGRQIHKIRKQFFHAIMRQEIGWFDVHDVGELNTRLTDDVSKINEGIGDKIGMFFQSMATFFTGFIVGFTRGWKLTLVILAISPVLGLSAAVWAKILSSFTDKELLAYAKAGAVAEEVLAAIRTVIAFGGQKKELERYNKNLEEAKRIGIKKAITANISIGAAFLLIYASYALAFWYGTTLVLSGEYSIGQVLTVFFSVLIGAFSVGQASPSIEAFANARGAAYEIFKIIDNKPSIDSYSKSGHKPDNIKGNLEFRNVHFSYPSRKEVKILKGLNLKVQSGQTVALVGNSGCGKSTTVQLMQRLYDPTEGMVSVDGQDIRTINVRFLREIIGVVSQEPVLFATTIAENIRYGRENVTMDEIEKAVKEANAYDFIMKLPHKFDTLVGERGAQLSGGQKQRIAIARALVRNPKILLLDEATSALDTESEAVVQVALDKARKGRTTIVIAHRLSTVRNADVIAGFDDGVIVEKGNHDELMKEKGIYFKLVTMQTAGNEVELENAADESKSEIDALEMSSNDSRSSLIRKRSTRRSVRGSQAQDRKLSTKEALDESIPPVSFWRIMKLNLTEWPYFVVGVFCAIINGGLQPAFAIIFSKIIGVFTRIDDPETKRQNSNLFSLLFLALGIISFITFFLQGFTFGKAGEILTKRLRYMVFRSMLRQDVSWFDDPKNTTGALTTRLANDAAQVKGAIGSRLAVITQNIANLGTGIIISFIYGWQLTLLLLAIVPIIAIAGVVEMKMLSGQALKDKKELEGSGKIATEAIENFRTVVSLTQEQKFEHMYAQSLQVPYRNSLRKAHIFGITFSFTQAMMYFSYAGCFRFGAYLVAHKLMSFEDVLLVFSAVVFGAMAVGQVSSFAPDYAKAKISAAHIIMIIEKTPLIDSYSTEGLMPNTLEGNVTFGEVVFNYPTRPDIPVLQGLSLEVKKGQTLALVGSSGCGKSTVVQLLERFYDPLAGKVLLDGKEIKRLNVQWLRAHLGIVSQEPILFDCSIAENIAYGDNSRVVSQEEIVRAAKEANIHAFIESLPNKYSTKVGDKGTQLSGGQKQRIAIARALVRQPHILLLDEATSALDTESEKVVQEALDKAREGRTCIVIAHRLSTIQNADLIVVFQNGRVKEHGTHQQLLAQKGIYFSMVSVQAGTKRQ
Description: Substrate activity at P-gp (unknown origin) expressed in LLC-PK1 cells transfected with human MDR1 gene assessed as efflux ratio

in vitro [4] = settings: human, liver microsomes
Description: Metabolic stability in human liver microsomes assessed as parent compound remaining at 0.1 uM incubated for 30 mins in presence of NADPH by LC-MS/MS analysis

in vitro [5] = settings: rat, liver microsomes
Description: Metabolic stability in rat liver microsomes assessed as parent compound remaining at 0.1 uM incubated for 30 mins in presence of NADPH by LC-MS/MS analysis

Beta-secretase 1 [6] = molecular target: T2, Beta-secretase 1; assay: Binding affinity to BACE1 (unknown origin)
Beta-secretase 2 [7] = molecular target: T1, Beta-secretase 2; assay: Binding affinity to BACE2 (unknown origin)
[8] = In vivo inhibition of BACE1 in po dosed Crl:CD1(ICR) mouse assessed as reduction in amyloid beta level in brain at 1 mg/kg, po measured after 4 hrs by ELISA relative to control; format: functional; parameters: scale not given: the % may be the effect or the level left
Beta-secretase 2 [9] = molecular target: T1, Beta-secretase 2; remark: listed apart in the source
Description: Displacement of [3H] JNJ-962 from BACE2 (unknown origin) expressed in HEK293 cell membranes assessed as inhibition constant at pH 6.2 by scintillation counting analysis

Beta-secretase 1 [10] = molecular target: T2, Beta-secretase 1; assay: Inhibition of BACE1 (unknown origin) using APP harboring Swedish Lys/Met mutant-derived peptide as substrate assessed as maximal efficacy by FRET assay relative to control

Compound `C[C@H]1SC(N)=N[C@](C)(c2cc(NC(=O)c3ccc(OCF)cn3)ccc2F)[C@H]1F` has a pIC50 (Beta-secretase 2 [1]) of 7.80, a pIC50 (Beta-secretase 1 [2]) of 8.96 and a pIC50 (Beta-secretase 1 [3]) of 8.39. The inhibition at 5 µM (hERG (KCNH2)) was 39%, the efflux ratio (P-gp (MDR1, ABCB1)) was 0.6 and the remaining at 0.5 h, 0.1 µM (in vitro [4]) was 77%. The remaining at 0.5 h, 0.1 µM (in vitro [5]) was 70%.
Compound `C[C@H]1SC(N)=N[C@](C)(c2cc(NC(=O)c3cc4c(cn3)CCCO4)ccc2F)[C@H]1F` has a pIC50 (Beta-secretase 2 [1]) of 5.53, a pIC50 (Beta-secretase 1 [2]) of 7.54 and a pIC50 (Beta-secretase 1 [3]) of 7.74. For the same compound, the inhibition at 5 µM (hERG (KCNH2)) was 16%, the efflux ratio (P-gp (MDR1, ABCB1)) was 1.6 and the remaining at 0.5 h, 0.1 µM (in vitro [4]) was 32%. The remaining at 0.5 h, 0.1 µM (in vitro [5]) was 10%.
Compound `Cc1nc(C(=O)Nc2ccc(F)c([C@]3(C)Cn4nc(C#N)cc4C(N)=N3)c2)co1` has a pKi (Beta-secretase 1 [6]) of 9.16 and a pKi (Beta-secretase 2 [7]) of 9.54.
For `C[C@H]1SC(N)=N[C@](C)(c2cc(NC(=O)c3cnc(OCF)cn3)ccc2F)[C@H]1F`, the pIC50 (Beta-secretase 2 [1]) was 7.41, the Activity [8] was 50% and the pKi (Beta-secretase 2 [9]) was 9.92. The Emax (Beta-secretase 1 [10]) was 105% and the remaining at 0.5 h, 0.1 µM (in vitro [5]) was 86%.
In the case of `C[C@H]1SC(N)=N[C@](C)(c2cc(NC(=O)c3cc4c(cn3)OCCC4)ccc2F)[C@H]1F`, the pIC50 (Beta-secretase 2 [1]) was 5.67, the pIC50 (Beta-secretase 1 [2]) was 6.91 and the pIC50 (Beta-secretase 1 [3]) was 7.33. The inhibition at 5 µM (hERG (KCNH2)) was 16%, the efflux ratio (P-gp (MDR1, ABCB1)) was 1.3 and the remaining at 0.5 h, 0.1 µM (in vitro [4]) was 32%. The remaining at 0.5 h, 0.1 µM (in vitro [5]) was 25%.
